Consider two molecules from US9650405B2, “Modified sophorolipids as oil solubilizing agents” (Polytechnic Institute of New York University, priority 2010, dated 2017).

The nature of data set [1]: Crude oil clearing/displacement activity. The conditions noted are these: 20 μL of 1 mg/mL solution. The method, then: Oil cleaning assays were performed using Louisiana Crude, Arabian Light Crude, and Prudhoe Bay Crude as the oil phase. In one study, the oil clearing/displacement activity of MSLs were assessed using a crude oil layer on top of sea water in order to simulate oil spill type conditions. Sea water (20 mL) was transferred to plastic Petri dishes and 20 μL of a crude oil type was added on top of the water to create an oil layer. Subsequently, a 20 μL aliquot of MSL solution (1 mg/mL) was added dropwise to the top of the oil layer. The instantaneous formation of an oil clearing zone as well as the diameter of the clearing zone was determined as a function of the dispersant used. […] Furthermore, the oil displacement activity of SL-ethyl ester and SL-butyl ester was slightly higher than Triton-X-100 for Arabian Light crude.

Data set [2] in a line: Crude oil emulsification activity (turbidity at 610 nm). The conditions noted are these: emulsifier 1 mg/mL. How it is done:
Emulsification activity was assessed using Louisiana Crude, Arabian Light Crude, and Prudhoe Bay Crude as the oil phase. A 2 mL solution with emulsifier concentration of 1 mg/mL was prepared. A crude oil (10 mg) was added to the emulsifier aqueous solution, the mixture was vortexed for one minute and the emulsified mixture was allowed to stand for 20 minutes. Emulsification activity was determined by measuring turbidity of the emulsion mixture in a spectrophotometer at 610 nm. The results obtained using SL-ethyl ester, SL-butyl ester, the natural sophorolipid mixture and Triton X-100 as emulsifiers are expressed as D610 and are listed in Table 8. […] Furthermore, a remarkable improvement in emulsification activity was obtained for SL-butyl ester relative to the natural sophorolipid mixture. These comparative results for emulsification of Louisiana Crude, Arabian Light Crude, and Prudhoe Bay Crude oil phase could not be anticipated by one skilled in the art.

Data set [3] is described as follows: MSL combination lemon oil emulsions, high shear homogenizer. Type of data set: physicochemical. The conditions noted are these: 5 weight % surfactant, 1 weight % lemon oil, one week at 25° C. How it is done: In addition to testing single MSL emulsification through tracking nanoemulsion stability, MSL combinations were investigated. These emulsions were processed with a high shear homogenizer at 13,500 rpm. One example of this MSL combination formulation included 5 weight % surfactant, 1 weight % lemon oil, and 94% deionized water. The pure form of this formulation included 5 weight % SL-hexyl ester. The combination form of this formulation included 2.5 weight % SL-hexyl ester and 2.5 weight % SL-ethyl ester. […] The size of droplets within this emulsion was 2.5 μm. […] The size of droplets within the combination emulsion was 8.4 nm.

The nature of data set [4]: Lemon oil solubilization, sonication, droplet size by dynamic light scattering. The data set is classed as physicochemical. How it is done:
MSL's used in this example are SL-hexyl ester (16), SL-octyl ester SL (17), and SL-dodecyl ester (18). To test the MSL capacity for lemon oil solubilization, the volume ratio of water to lemon oil, the concentration of surfactant, and the homogenization time (using a sonicator as the means of homogenization) were varied. Concentration of surfactant is calculated on a w/w basis relative to the mass of water being used. To form emulsions, the MSL or other surfactant is first dissolved in the water, oil is added to the solution, and finally the contents of the water/surfactant+oil system is sonicated. Subsequently, the emulsion is allowed to settle for 24 hours at 25° C. before measurements or visual observations are made.
To evaluate the stability of lemon oil solubilization, photographs of emulsions were recorded daily (after the initial 24 hours). Visual observations consisted of assessing solution clarity, extent of creaming and whether oil separation occurs. After selected time periods measurement of emulsion droplet size was performed by dynamic light scattering, which gives an average droplet size in the solution. […] If the emulsion had creamed (separated into two discreet emulsion layers) the average droplet size for each emulsion layer was determined. The results of this study are listed in Table 6, where the first number represents average droplet size in the top emulsion layer and the second represents the average droplet size in the bottom emulsion layer. […] A better performing emulsifier for this study is defined as functioning to form emulsions with smaller average particle size after the aging period.

Setting [5] is: lemon oil/water 1/99, sonication 120 sec, 0.5 wt %, 1 Month.
[6] abbreviates: lemon oil/water 5/95, sonication 60 sec, 0.25 weight-%, 1 Month.
Setting [7] is: lemon oil/water 5/95, sonication 60 sec, 1 weight-%, 1 Month.
[8] abbreviates: lemon oil/water 5/95, sonication 60 sec, 1 weight-%, 1 Week.
The mark [9] stands for this setting: lemon oil/water 5/95, sonication 120 sec, 0.25 weight-%, 1 Month.
Setting [10] is: lemon oil/water 5/95, sonication 120 sec, 0.5 weight-%, 1 Month.
Where [11] appears, read: lemon oil/water 5/95, sonication 120 sec, 0.5 weight-%, 1 Week.
Setting [12] is: lemon oil/water 5/95, sonication 120 sec, 1 weight-%, 1 Month.
[13] abbreviates: lemon oil/water 5/95, sonication 120 sec, 1 weight-%, 1 Week.

With `CCCCOC(=O)CCCCCCCC=CCCCCCCC(C)OC1OC(CO)C(O)C(O)C1OC1OC(CO)C(O)C(O)C1O` (centres unmarked) [Compound 8, SL-Butyl Ester], the “Oil displacement activity (diameter of the clearing zone)” value in data set [1] (Arabian Light Crude on sea water) amounted to 6.7 ± 0.14 cm; in data set [1] (Louisiana Crude on sea water), 8.7 ± 0.35 cm; in data set [1] (Prudhoe Bay Crude on sea water), 7.5 cm. Moreover, the “Emulsification activity (D610)” value in data set [2] (Arabian Crude) is given as 1.77; in data set [2] (Louisiana Crude), 1.50; in data set [2] (Prudhoe Crude) it was 1.58.
Take `CCCCCCOC(=O)CCCCCCCC=CCCCCCCC(C)OC1OC(CO)C(O)C(O)C1OC1OC(CO)C(O)C(O)C1O` (centres unmarked) [Compound 16, SL-Hexyl Ester]: the “size of droplets within the emulsion” value in data set [3] (94% deionized water) was 2.5 μm. For the same molecule, the “appearance of the emulsion” value in data set [3] is “completely opaque”. For the same molecule, the “average droplet sizes after one month” value in data set [4] (lemon oil emulsions, after one month) is recorded as “below 1 μm”. In addition, the “Emulsion Droplet Size” value in data set [4] (lemon oil/water 1/99, sonication 60 sec, 0.25 weight-%, 1 Month) turned out to be 138 nm; in data set [4] (lemon oil/water 1/99, sonication 60 sec, 0.25 weight-%, 1 Week), 200 nm; in data set [4] (lemon oil/water 1/99, sonication 60 sec, 1 weight-%, 1 Month), 52 nm; in data set [4] (lemon oil/water 1/99, sonication 60 sec, 1 weight-%, 1 Week) it was 22 nm; in data set [4] (lemon oil/water 1/99, sonication 120 sec, 0.25 weight-%, 1 Month), 105 nm; in data set [4] (lemon oil/water 1/99, sonication 120 sec, 0.25 weight-%, 1 week) it was 149 nm. Besides, the “Emulsion Droplet Size” value in data set [4] (lemon oil/water 1/99, sonication 120 sec, 0.5 wt %, 1 Week) turned out to be 255 nm; in data set [4] (lemon oil/water 1/99, sonication 120 sec, 1 weight-%, 1 Month), 26 nm; in data set [4] (lemon oil/water 1/99, sonication 120 sec, 1 weight-%, 1 Week) it was 20 nm; in data set [4] (lemon oil/water 5/95, sonication 60 sec, 0.25 weight-%, 1 week), 330 nm; in data set [4] (lemon oil/water 5/95, sonication 120 sec, 0.25 weight-%, 1 week), 325 nm. The “Emulsion Droplet Size, bottom emulsion layer” value worked out at 82 nm in data set [4] (setting [5]); 177 nm in data set [4] (setting [6]); 32 nm in data set [4] (setting [7]); 112 nm in data set [4] (setting [8]); 166 nm in data set [4] (setting [9]); 120 nm in data set [4] (setting [10]). Further, the “Emulsion Droplet Size, bottom emulsion layer” value in data set [4] (setting [11]) amounted to 29 nm; in data set [4] (setting [12]) it was 25 nm; in data set [4] (setting [13]), 246 nm. Further, the “Emulsion Droplet Size, top emulsion layer” value is 287 nm in data set [4] (setting [5]); 506 nm in data set [4] (setting [6]); 471 nm in data set [4] (setting [7]); 313 nm in data set [4] (setting [8]); 450 nm in data set [4] (setting [9]); 505 nm in data set [4] (setting [10]). For the same molecule, the “Emulsion Droplet Size, top emulsion layer” value in data set [4] (setting [11]) came out at 320 nm; in data set [4] (setting [12]) it was 518 nm; in data set [4] (setting [13]) it was 336 nm.
